Test results as given in patent US12721912B2, “Radiopharmaceutical compositions for actinium in targeted radionuclide therapy” (Curium US LLC, priority 2024, dated 2026).
Read-outs that look alike come from different tables or passages of the source.

How the values were obtained:
[1] = Metal scavenger (DTPA) formulations: radiochemical stability by radio-TLC at 40° C. (Table 17); format: physicochemical; conditions: 11.3 mg/ml sodium ascorbate formulation, 0.0005-0.01 mg/ml DTPA
Description: The mixture was then divided into four samples which were diluted with suitable amount WFI and DTPA solution to achieve concentrations of 0.0005 mg/ml, 0.001 mg/ml, 0.005 mg/ml, and 0.01 mg/ml of DTPA in the final formulations. […] The samples were kept at 40° C.

[2] = Process A / process B injection stored at 5, 22.5, 32.5 and 40° C.: radiochemical purity by radio-TLC (Tables 21, 22); format: physicochemical; conditions: 5-40° C.
Description: The radio-TLC method was performed as follows: 5 μl or 10 μl of the sample was spotted onto the application line (1.5 cm from the lower edge of the plate) of a TLC plate (Merck Silica Gel 60 F254, plate size 20×100 mm). The TLC plate was developed in a TLC chamber using 0.1 M citric acid (adjusted to pH 5) as mobile phase. The plate was removed from the chamber when the eluent front reached 7.5 cm distance from the application line. The plates were analyzed with a radio-TLC scanner after secular equilibrium between ^225Ac and daughter nuclides was reached (minimum of 7 hours). […]
In process B, radiolabeling is performed in 11.3 mg/ml sodium ascorbate solution and the 0.04 M HCl is neutralized by adding 1 ml of 0.04 M NaOH solution into the reactor prior to labeling. The final formulation in process B is prepared to an intended radioactivity concentration by diluting with 11.3 mg/ml sodium ascorbate solution.
To compare the processes, ^225Ac-PSMA I&T injection was prepared at around 1 mCi scale using both processes. […] Radioactivity concentration was 468 kBq/ml in process A and 969 kBq/ml in process B. […]
The purity of ^225Ac-PSMA I&T samples was analyzed by the radio-TLC and HPLC fraction collection methods described previously at different time points.

[3] = tested on: patients with mCRPC; conditions: cited from earlier work
[4] = cited from earlier work
[5] = tested on: patients with mCRPC; conditions: cited from earlier work; remark: listed apart in the source
[6] = subgroup of 11 patients with prior ^177Lu-PSMA treatment
[7] = subgroup with prior ^177Lu-PSMA radioligand therapy

In the case of “(25)-2-[[(1S)-1-carboxylato-5-[[8-[[(5R)-5-carboxylato-5-[[(2R)-2-[[(2R)-2-[[(4R)-4-carboxylato-4-[4,7,10-tris(carboxylatomethyl)-1,4,7,10-tetrazacyclododec-1-yl]butanoyl]amino]-3-(4-hydroxy-3-iodophenyl)propanoyl]amino]-3-phenylpropanoyl]amino]pentyl]amino]-8-oxooctanoyl]amino]pentyl]carbamoylamino]pentanedioate; hydron; actinium-225(3+) [^225Ac-PSMA I&T]”, the “Effect of DTPA on the stability” value [1] is listed as “significantly reduce the stability”, the “Radiochemical purity by the radio-TLC method after 120-hour time point” value [2] is listed as “greater than 98%” and the “Biochemical response PSA50” value ([3]; 1 patient, 8 MBq per cycle) is listed as 100%. The Major toxicity ([3]; 1 patient, 8 MBq per cycle) was “xerostomia”, the “Main TAT-related side effect” value ([3]; already preexisting after 10 cycles of RLT) was “grade 2 xerostomia” and the Hematological side effects ([3]; human, in vivo) was “No TAT-related grade 3/4 hematological side effects”. For the same substance, the Response ([3]; two cycles after failure of ^177Lu-PSMA-617) was “encouraging response”, the “Absorbed dose, left kidney” value ([4]; 8.1 MBq, SPECT at 24 h p. i.) was 0.18 SV(RBE=5)MBq and the “Absorbed dose, right kidney” value ([4]; 8.1 MBq, SPECT at 24 h p. i.) was 0.17 SV(RBE=5)MBq. For the same substance, the “Absorbed dose, small lesion in the right hip” value ([4]; human, in vivo) was 0.26 SV(RBE=5)MBq, the “Grade 3 anemia after TAT” value ([5]; 2 of them with grade 2 anemia at baseline) was 3 of the 14 patients and the “Biochemical response PSA50” value ([5]; 14 patients, 7.8 MBq per cycle) was 50%. For the same substance, the “Grade 1 nephrotoxicity” value ([5]; 14 patients, FIG. 13) was “one”, the Hematologic toxicity ([5]; 14 patients, FIG. 13) was “mild” and the “Acute toxicity during hospitalization” value ([5]; 14 patients) was “No acute toxicity”. For the same substance, the “Best PSA response after TAT (PSA decline ≥50%)” value ([5]; 14 patients) was 7 patients, the “Grade 3 leukopenia” value ([5]; 14 patients) was 1 patient and the Major toxicity ([5]; 14 patients) was “xerostomia”. For the same substance, the “Newly diagnosed grade 1 or 2 xerostomia after TAT” value ([5]; 14 patients) was 5 patients, the “No PSA decline at any time” value ([5]; 14 patients) was “Three” and the “No xerostomia at all” value ([5]; 14 patients) was “One”. The “PSA decline of any amount” value ([5]; 14 patients) was 11 patients, the “Preexisting xerostomia after ^177Lu-PSMA, no worsening after TAT” value ([5]; 14 patients) was “Eight” and the “Any PSA decline” value [5, 6] was 8 patients. For the same substance, the “PSA decline of at least 50%” value [5, 6] was 5 patients, the “Any PSA decline” value [5, 7] was 73% and the “PSA decline ≥50%” value [5, 7] was 45%.
